From paper PMC12016938, “A small molecule PKCε inhibitor reduces hyperalgesia induced by paclitaxel or opioid withdrawal” (JCI Insight, 2025)
Several values for one entry are separate records, joined by “and”; a condition that tells them apart may be missing. Identical values can stand only once. Like-named read-outs stand apart in the source and are kept apart here.

How the values were obtained:
CLK1 (CDC Like Kinase 1) = target: T1, CLK1 (CDC Like Kinase 1) (Homo sapiens, UniProt P49759); assay: scanMax kinome panel, CLK1; assay type: binding; settings: 200 nM CP612; read-out: scanMax % of control, CLK1
T1 construct: purchased Eurofins-DiscoverX
T1 sequence (P49759 whole entry): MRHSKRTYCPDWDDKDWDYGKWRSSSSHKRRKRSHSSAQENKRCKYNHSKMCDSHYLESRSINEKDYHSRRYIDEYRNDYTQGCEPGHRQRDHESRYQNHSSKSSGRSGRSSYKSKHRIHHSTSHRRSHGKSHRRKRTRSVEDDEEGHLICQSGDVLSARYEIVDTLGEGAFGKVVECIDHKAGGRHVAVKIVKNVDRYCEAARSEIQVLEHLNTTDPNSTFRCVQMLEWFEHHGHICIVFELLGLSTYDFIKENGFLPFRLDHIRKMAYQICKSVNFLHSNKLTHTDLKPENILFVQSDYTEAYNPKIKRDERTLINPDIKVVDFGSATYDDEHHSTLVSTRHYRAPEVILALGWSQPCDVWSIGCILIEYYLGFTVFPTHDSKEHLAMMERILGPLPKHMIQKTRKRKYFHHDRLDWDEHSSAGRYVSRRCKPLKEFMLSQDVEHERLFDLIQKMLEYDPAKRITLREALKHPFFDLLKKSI
Experimental: (§1) CP612 was screened for kinome specificity at 200 nM against 468 kinases using the scanMax assay panel from Eurofins-DiscoverX. CP612 inhibited 10 other WT kinases besides PKCε, all to < 10% of control: CLK1 (CDC Like Kinase 1), CLK4, PKN1 (Protein kinase N1), PKN2, PKCδ, PKCη, PKCθ, PRKG2 (Protein Kinase CGMP-Dependent 2), ROCK1, and ROCK2.

CLK4 = target: T2, CLK4 (Homo sapiens, UniProt Q9HAZ1); assay: scanMax kinome panel, CLK4; assay type: binding; settings: 200 nM CP612; read-out: scanMax % of control, CLK4
T2 construct: purchased Eurofins-DiscoverX
T2 sequence (Q9HAZ1 whole entry): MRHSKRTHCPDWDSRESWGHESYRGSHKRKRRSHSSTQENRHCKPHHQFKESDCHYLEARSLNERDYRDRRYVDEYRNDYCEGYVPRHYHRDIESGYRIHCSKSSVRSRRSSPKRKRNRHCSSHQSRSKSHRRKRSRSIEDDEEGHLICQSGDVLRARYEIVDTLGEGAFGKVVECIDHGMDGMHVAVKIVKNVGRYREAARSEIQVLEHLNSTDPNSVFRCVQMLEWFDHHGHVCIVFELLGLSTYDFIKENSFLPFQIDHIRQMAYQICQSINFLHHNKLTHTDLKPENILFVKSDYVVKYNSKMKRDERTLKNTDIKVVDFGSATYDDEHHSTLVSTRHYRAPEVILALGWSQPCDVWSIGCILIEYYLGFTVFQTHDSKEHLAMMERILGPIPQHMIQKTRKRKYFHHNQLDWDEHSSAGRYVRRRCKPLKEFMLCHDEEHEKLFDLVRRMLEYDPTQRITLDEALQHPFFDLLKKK
Experimental: as §1

PKN2 = target: T3, PKN2 (Homo sapiens, UniProt Q16513); assay: scanMax kinome panel, PKN2; assay type: binding; settings: 200 nM CP612
T3 construct: purchased Eurofins-DiscoverX
T3 sequence (Q16513 whole entry): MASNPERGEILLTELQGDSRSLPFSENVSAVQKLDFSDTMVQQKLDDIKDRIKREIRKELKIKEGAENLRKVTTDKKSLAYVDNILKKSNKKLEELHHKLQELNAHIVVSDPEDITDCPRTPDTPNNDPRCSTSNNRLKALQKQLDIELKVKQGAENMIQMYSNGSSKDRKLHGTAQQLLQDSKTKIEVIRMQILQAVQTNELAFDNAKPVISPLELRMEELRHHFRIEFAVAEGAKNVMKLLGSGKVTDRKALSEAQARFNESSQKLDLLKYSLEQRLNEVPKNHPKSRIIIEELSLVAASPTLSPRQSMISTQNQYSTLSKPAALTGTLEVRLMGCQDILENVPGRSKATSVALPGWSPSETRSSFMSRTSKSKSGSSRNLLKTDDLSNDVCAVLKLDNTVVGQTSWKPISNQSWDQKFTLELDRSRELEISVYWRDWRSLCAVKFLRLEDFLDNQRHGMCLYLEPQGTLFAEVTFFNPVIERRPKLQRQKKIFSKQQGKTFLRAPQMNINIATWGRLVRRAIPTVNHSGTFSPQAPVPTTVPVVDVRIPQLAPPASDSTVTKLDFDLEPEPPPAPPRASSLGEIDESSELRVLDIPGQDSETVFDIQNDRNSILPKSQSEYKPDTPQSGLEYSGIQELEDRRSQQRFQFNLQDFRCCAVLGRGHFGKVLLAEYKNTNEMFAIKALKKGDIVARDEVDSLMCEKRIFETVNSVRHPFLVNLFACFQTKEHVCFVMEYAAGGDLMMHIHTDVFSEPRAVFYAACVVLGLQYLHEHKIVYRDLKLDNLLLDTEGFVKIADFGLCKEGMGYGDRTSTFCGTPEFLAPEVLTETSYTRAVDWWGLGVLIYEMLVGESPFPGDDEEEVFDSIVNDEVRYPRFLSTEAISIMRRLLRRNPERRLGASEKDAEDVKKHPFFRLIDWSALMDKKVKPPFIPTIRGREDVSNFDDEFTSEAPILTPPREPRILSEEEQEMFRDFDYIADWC
Experimental: as §1

[1] = target: T4, PRKG2 (Protein Kinase CGMP-Dependent 2) (Homo sapiens, UniProt Q13237); assay: scanMax kinome panel, PRKG2; assay type: binding; settings: 200 nM CP612
T4 construct: purchased Eurofins-DiscoverX
T4 sequence (Q13237 whole entry): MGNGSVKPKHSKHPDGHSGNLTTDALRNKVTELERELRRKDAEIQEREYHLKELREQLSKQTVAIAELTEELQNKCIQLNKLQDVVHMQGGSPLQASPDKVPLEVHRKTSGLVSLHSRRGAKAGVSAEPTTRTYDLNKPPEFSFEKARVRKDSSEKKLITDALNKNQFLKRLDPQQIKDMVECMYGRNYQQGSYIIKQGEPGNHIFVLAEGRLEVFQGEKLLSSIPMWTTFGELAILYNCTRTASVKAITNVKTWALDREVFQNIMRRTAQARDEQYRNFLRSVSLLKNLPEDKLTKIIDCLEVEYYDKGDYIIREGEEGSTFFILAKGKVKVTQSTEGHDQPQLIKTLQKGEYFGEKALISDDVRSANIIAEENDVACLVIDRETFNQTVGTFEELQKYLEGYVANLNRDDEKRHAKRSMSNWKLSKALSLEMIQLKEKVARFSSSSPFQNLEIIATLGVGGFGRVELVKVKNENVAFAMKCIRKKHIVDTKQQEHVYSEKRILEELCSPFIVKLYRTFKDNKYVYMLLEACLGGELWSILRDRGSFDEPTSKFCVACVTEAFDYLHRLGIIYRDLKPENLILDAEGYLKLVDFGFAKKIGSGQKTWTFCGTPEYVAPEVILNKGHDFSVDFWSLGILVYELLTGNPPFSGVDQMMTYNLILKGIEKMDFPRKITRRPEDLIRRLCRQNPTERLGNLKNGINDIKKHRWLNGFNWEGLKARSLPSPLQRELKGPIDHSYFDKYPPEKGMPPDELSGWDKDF
Experimental: as §1

ROCK2 = target: T5, ROCK2 (Homo sapiens, UniProt O75116); assay: scanMax kinome panel, ROCK2; assay type: binding; settings: 200 nM CP612
T5 construct: purchased Eurofins-DiscoverX
T5 sequence (O75116 whole entry): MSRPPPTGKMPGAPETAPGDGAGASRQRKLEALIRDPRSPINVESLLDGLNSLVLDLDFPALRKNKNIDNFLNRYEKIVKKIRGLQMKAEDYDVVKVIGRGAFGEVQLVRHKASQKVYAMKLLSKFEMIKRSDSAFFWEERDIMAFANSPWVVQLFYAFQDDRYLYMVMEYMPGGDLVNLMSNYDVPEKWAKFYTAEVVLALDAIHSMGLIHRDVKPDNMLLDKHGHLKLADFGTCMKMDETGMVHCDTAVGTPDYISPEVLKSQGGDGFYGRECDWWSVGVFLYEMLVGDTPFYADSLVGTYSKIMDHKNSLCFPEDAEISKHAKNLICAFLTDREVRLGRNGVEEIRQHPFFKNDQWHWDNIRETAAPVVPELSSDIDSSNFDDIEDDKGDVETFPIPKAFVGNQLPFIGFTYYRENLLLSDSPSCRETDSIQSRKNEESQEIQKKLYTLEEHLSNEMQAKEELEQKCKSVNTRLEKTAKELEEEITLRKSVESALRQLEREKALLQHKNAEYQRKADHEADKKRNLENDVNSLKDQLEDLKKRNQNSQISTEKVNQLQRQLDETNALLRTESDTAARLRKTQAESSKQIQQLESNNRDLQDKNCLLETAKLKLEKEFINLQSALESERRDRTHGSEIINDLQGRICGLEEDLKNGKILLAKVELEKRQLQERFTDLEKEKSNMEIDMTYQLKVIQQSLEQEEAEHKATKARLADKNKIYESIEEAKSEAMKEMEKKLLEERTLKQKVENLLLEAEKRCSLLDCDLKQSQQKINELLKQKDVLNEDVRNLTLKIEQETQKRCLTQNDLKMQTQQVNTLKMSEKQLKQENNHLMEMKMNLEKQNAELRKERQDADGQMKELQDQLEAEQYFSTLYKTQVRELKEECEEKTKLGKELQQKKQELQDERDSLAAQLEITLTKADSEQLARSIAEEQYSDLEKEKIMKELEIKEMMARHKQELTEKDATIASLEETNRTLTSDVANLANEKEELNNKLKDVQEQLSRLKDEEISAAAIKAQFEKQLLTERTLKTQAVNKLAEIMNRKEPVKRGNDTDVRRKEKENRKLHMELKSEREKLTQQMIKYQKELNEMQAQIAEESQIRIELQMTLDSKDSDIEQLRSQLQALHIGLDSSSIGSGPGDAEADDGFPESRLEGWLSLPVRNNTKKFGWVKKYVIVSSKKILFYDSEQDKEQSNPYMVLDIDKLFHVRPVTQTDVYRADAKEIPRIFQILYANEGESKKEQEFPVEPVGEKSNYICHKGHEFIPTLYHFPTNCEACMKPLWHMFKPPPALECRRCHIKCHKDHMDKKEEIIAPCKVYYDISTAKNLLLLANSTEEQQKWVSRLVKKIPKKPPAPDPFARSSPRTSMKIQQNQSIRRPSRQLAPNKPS
Experimental: as §1

[2] = tested on: morphine self-administration;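 further: rats trained to self-administer intravenous morphine at 500 µg/kg per infusion, first under FR1 then FR3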

**Q.** With `N[C@H](CNC(=O)C1(c2ccc(Cl)cc2)CCCC1)c1ccc(C(=O)Nc2ccncc2)cc1` [CP612] as the compound, how does the remaining binding at 0.2 µM (CLK1 (CDC Like Kinase 1)) read?
**A.** < 10%

**Q.** And the remaining binding at 0.2 µM (CLK4)?
**A.** < 10%

**Q.** What about the “scanMax % of control, PKN2” value (PKN2) of the same compound?
**A.** < 10 % of control

**Q.** What about the “scanMax % of control, PRKG2” value [1] of the same compound?
**A.** < 10 % of control

**Q.** What about the “scanMax % of control, ROCK2” value (ROCK2) of the same compound?
**A.** < 10 % of control

**Q.** What about the “D10 BP (PR1)” value ([2]; BP, Day 10, progressive ratio PR1, CP612 6 hours prior, group mean, n=7) of the same compound?
**A.** 25.57

**Q.** What about the “D12 BP (PR2_WD)” value ([2]; BP, Day 12, progressive ratio PR2 withdrawal, CP612 6 hours prior, group mean, n=6) of the same compound?
**A.** 21.67

**Q.** What about the “D13 BP (PR3_Nal)” value ([2]; BP, Day 13, progressive ratio PR3_Nal, CP612 6 hours prior, group mean, n=7) of the same compound?
**A.** 17.57

**Q.** And the “D12 BP (PR2_WD)” value ([2]; BP, PR2_WD, day 12, individual rats)?
**A.** 40 and 15 and 20

**Q.** And the “Effect on morphine intake or responding (infusions and breaking point)” value ([2]; CP612 30 mg/kg i.p. 6 hours prior, progressive ratio tests 1-3)?
**A.** did not modify morphine intake or responding

**Q.** What about the “D1 AH (FR1)” value ([2]; active hole responses, Day 1, fixed ratio 1, mean of CP612 group, n=7) of the same compound?
**A.** 16.14

**Q.** And the “D2 AH (FR1)” value ([2]; active hole responses, Day 2, fixed ratio 1, mean of CP612 group, n=7)?
**A.** 13.86

**Q.** And the “D3 AH (FR1)” value ([2]; active hole responses, Day 3, fixed ratio 1, mean of CP612 group, n=7)?
**A.** 16.29

**Q.** What about the “D4 AH (FR1)” value ([2]; active hole responses, Day 4, fixed ratio 1, mean of CP612 group, n=7) of the same compound?
**A.** 14.57

**Q.** And the “D4 AH (FR3)” value ([2]; active hole responses, Day 4, fixed ratio 3, mean of CP612 group, n=7)?
**A.** 14.57

**Q.** What about the “D5 AH (FR3)” value ([2]; active hole responses, Day 5, fixed ratio 3, mean of CP612 group, n=7) of the same compound?
**A.** 25.86

**Q.** What about the “D6 AH (FR3)” value ([2]; active hole responses, Day 6, fixed ratio 3, mean of CP612 group, n=7) of the same compound?
**A.** 25.71

**Q.** And the “D7 AH (FR3)” value ([2]; active hole responses, Day 7, fixed ratio 3, mean of CP612 group, n=7)?
**A.** 27.86

**Q.** And the “D8 AH (FR3)” value ([2]; active hole responses, Day 8, fixed ratio 3, mean of CP612 group, n=7)?
**A.** 35.00

**Q.** And the “D9 AH (FR3)” value ([2]; active hole responses, Day 9, fixed ratio 3, mean of CP612 group, n=7)?
**A.** 37.86

**Q.** And the “D10 AH (PR1)” value ([2]; active hole responses, Day 10, PR1, CP612 6 hours prior, group mean, n=7)?
**A.** 119.00

**Q.** And the “D12 AH (PR2_WD)” value ([2]; active hole responses, Day 12, PR2 withdrawal, CP612 6 hours prior, group mean, n=6)?
**A.** 99.33

**Q.** What about the “D13 AH (PR3_Nal)” value ([2]; active hole responses, Day 13, PR3_Nal, CP612 6 hours prior, group mean, n=7) of the same compound?
**A.** 78.29

**Q.** What about the “AH (avg all)” value ([2]; active hole responses, average of all days D1-D9, mean of CP612 group, n=7) of the same compound?
**A.** 23.68

**Q.** What about the “AH (avg last 3 days)” value ([2]; active hole responses, average of last 3 days, mean of CP612 group, n=7) of the same compound?
**A.** 33.57

**Q.** What about the “D1 IH (FR1)” value ([2]; inactive hole responses, Day 1, fixed ratio 1, mean of CP612 group, n=7) of the same compound?
**A.** 7.43

**Q.** What about the “D2 IH (FR1)” value ([2]; inactive hole responses, Day 2, fixed ratio 1, mean of CP612 group, n=7) of the same compound?
**A.** 12.14

**Q.** And the “D3 IH (FR1)” value ([2]; inactive hole responses, Day 3, fixed ratio 1, mean of CP612 group, n=7)?
**A.** 12.43

**Q.** And the “D4 IH (FR1)” value ([2]; inactive hole responses, Day 4, fixed ratio 1, mean of CP612 group, n=7)?
**A.** 8.71

**Q.** And the “D4 IH (FR3)” value ([2]; inactive hole responses, Day 4, fixed ratio 3, mean of CP612 group, n=7)?
**A.** 8.71

**Q.** What about the “D5 IH (FR3)” value ([2]; inactive hole responses, Day 5, fixed ratio 3, mean of CP612 group, n=7) of the same compound?
**A.** 13.86

**Q.** What about the “D6 IH (FR3)” value ([2]; inactive hole responses, Day 6, fixed ratio 3, mean of CP612 group, n=7) of the same compound?
**A.** 7.43

**Q.** What about the “D7 IH (FR3)” value ([2]; inactive hole responses, Day 7, fixed ratio 3, mean of CP612 group, n=7) of the same compound?
**A.** 4.57

**Q.** What about the “D8 IH (FR3)” value ([2]; inactive hole responses, Day 8, fixed ratio 3, mean of CP612 group, n=7) of the same compound?
**A.** 6.43

**Q.** What about the “D9 IH (FR3)” value ([2]; inactive hole responses, Day 9, fixed ratio 3, mean of CP612 group, n=7) of the same compound?
**A.** 5.57

**Q.** What about the “D10 IH (PR1)” value ([2]; inactive hole responses, Day 10, PR1, CP612 6 hours prior, group mean, n=7) of the same compound?
**A.** 13.00

**Q.** And the “D12 IH (PR2_WD)” value ([2]; inactive hole responses, Day 12, PR2 withdrawal, CP612 6 hours prior, group mean, n=6)?
**A.** 10.67

**Q.** What about the “D13 IH (PR3_Nal)” value ([2]; inactive hole responses, Day 13, PR3_Nal, CP612 6 hours prior, group mean, n=7) of the same compound?
**A.** 8.86

**Q.** And the “D9 IH (avg all)” value ([2]; inactive hole responses, average of all days D1-D9, mean of CP612 group, n=7)?
**A.** 8.73

**Q.** And the “D9 IH (avg last 3 days)” value ([2]; inactive hole responses, average of last 3 days, mean of CP612 group, n=7)?
**A.** 5.52

**Q.** And the “D10 AH (PR1) Log” value ([2]; log of active hole responses, Day 10, PR1, CP612 6 hours prior, group mean, n=7)?
**A.** 2.04

**Q.** And the “D12 AH (PR2_WD) Log” value ([2]; log of active hole responses, Day 12, PR2 withdrawal, CP612 6 hours prior, group mean, n=6)?
**A.** 1.94

**Q.** What about the “D13 AH (PR3_Nal) Log” value ([2]; log of active hole responses, Day 13, PR3_Nal, CP612 6 hours prior, group mean, n=7) of the same compound?
**A.** 1.85

**Q.** What about the “D10 IH (PR1) Log” value ([2]; log of inactive hole responses, Day 10, PR1, CP612 6 hours prior, group mean, n=7) of the same compound?
**A.** 1.03

**Q.** What about the “D12 IH (PR2_WD) Log” value ([2]; log of inactive hole responses, Day 12, PR2 withdrawal, CP612 6 hours prior, group mean, n=6) of the same compound?
**A.** 0.89

**Q.** What about the “D13 IH (PR3_Nal) Log” value ([2]; log of inactive hole responses, Day 13, PR3_Nal, CP612 6 hours prior, group mean, n=7) of the same compound?
**A.** 0.88

**Q.** And the “D10 Inf (PR1) Log” value ([2]; log of infusions, Day 10, PR1, CP612 6 hours prior, group mean, n=7)?
**A.** 0.94
